Data published in the supplement of paper PMC10307832.

Each cell line was assayed with Cc1ccccc1C(C(=O)NC1CCCCC1)N(C(=O)Cn1ccnc1C)c1cccc(F)c1 [IDH-C35] + CC(=O)Nc1cccc(-n2c(=O)n(C3CC3)c(=O)c3c(Nc4ccc(I)cc4F)n(C)c(=O)c(C)c32)c1 [Trametinib] (partner 0.02 µM) (assay: relative viability (nuclei count vs DMSO), 5 days (fraction); higher = more cells survive). Settings: first compound 8 µM.
Method in brief: (§1)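 Medians of duplicate plates are given as relative viability. That measure is the nuclei count in treated wells divided by the count in vehicle wells. Counts were taken on 4× images of lung cancer cell lines in 1536-well plates, 5 days after pin-tool dosing the day after seeding with one drug alone or a fixed anchor-drug dose plus five library-drug doses (not always all listed) in √10 steps.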

Row | Cell Line | relative viability
1 | SW 900 | 0.767
2 | NCI-H1648 | 0.584
3 | HCC-78 | 0.761

These cell lines were tested with Cc1ccccc1C(C(=O)NC1CCCCC1)N(C(=O)Cn1ccnc1C)c1cccc(F)c1 [IDH-C35] + CCNC(=O)c1noc(-c2cc(C(C)C)c(O)cc2O)c1-c1ccc(CN2CCOCC2)cc1 [Luminespib] (partner 0.01 µM) in the same assay as above. Settings: first compound 0.08 µM.
Method in brief: as §1

Row | Cell Line | relative viability
4 | NCI-H522 | 0.958
5 | NCI-H1623 | 0.435
6 | NCI-H727 | 0.27
7 | NCI-H1650 | 0.207
8 | NCI-H1993 | 0.793
9 | SW 1573 | 0.136
10 | NCI-H838 | 0.319
11 | LCLC-103H | 0.93
12 | NCI-H520 | 0.26
13 | NCI-H2126 | 0.841
14 | EMC-BAC-2 | 1.18
15 | NCI-H2085 | 0.352
16 | NCI-H1666 | 0.984
17 | NCI-H596 | 1.04
18 | LK-2 | 0.173
19 | NCI-H2087 | 0.105
20 | NCI-H2342 | 0.818
21 | SK-MES-1 | 0.701
22 | H3255 | 0.845
23 | COR-L23 | 0.789
24 | COR-L 105 | 0.722
25 | ChaGo-K-1 | 0.733
26 | NCI-H2170 | 0.678
27 | SW 900 | 0.175
28 | NCI-H1563 | 0.538
29 | ABC-1 | 0.598

Same assay, conditions: first compound 0.253 µM

Row | Cell Line | relative viability
30 | NCI-H522 | 1
31 | NCI-H1623 | 0.503
32 | NCI-H727 | 0.398
33 | NCI-H1650 | 0.182
34 | NCI-H1993 | 0.882
35 | SW 1573 | 0.218
36 | NCI-H838 | 0.3
37 | LCLC-103H | 0.999
38 | NCI-H520 | 0.189
39 | NCI-H2126 | 0.858
40 | EMC-BAC-2 | 1.18
41 | NCI-H2085 | 0.458
42 | NCI-H1666 | 0.979
43 | NCI-H596 | 0.974
44 | LK-2 | 0.177
45 | NCI-H2087 | 0.141
46 | NCI-H2342 | 0.617
47 | SK-MES-1 | 0.939
48 | H3255 | 0.998
49 | COR-L23 | 0.656
50 | COR-L 105 | 0.951
51 | ChaGo-K-1 | 0.625
52 | NCI-H2170 | 0.799
53 | SW 900 | 0.178
54 | NCI-H1563 | 0.563

Same assay, conditions: first compound 0.8 µM

Row | Cell Line | relative viability
55 | NCI-H522 | 1.1
56 | NCI-H1623 | 0.502
57 | NCI-H727 | 0.39
58 | NCI-H1650 | 0.214
59 | NCI-H1993 | 0.914
60 | SW 1573 | 0.257
61 | NCI-H838 | 0.266
62 | LCLC-103H | 0.95
63 | NCI-H520 | 0.27
64 | NCI-H2126 | 0.892
65 | EMC-BAC-2 | 1.18
66 | NCI-H2085 | 0.519
67 | NCI-H1666 | 1.04
68 | NCI-H596 | 1.22
69 | LK-2 | 0.205
70 | NCI-H2087 | 0.164
71 | NCI-H2342 | 0.803
72 | SK-MES-1 | 0.855
73 | H3255 | 0.734
74 | COR-L23 | 0.664
75 | COR-L 105 | 0.715
76 | ChaGo-K-1 | 0.623
77 | NCI-H2170 | 0.684
78 | SW 900 | 0.181
79 | NCI-H1563 | 0.558
80 | ABC-1 | 0.688

Same assay, conditions: first compound 2.53 µM

Row | Cell Line | relative viability
81 | NCI-H522 | 1.22
82 | NCI-H1623 | 0.559
83 | NCI-H727 | 0.407
84 | NCI-H1650 | 0.2
85 | NCI-H1993 | 0.836
86 | SW 1573 | 0.442
87 | NCI-H838 | 0.331
88 | LCLC-103H | 0.959
89 | NCI-H520 | 0.21
90 | NCI-H2126 | 0.897
91 | EMC-BAC-2 | 1.14
92 | NCI-H2085 | 0.428
93 | NCI-H1666 | 1.04
94 | LK-2 | 0.176
95 | NCI-H2342 | 0.631
96 | SK-MES-1 | 0.861
97 | H3255 | 1.03
98 | COR-L23 | 0.641
99 | COR-L 105 | 0.819
100 | ChaGo-K-1 | 0.697
101 | NCI-H2170 | 0.687
102 | SW 900 | 0.179
103 | NCI-H1563 | 0.508
104 | ABC-1 | 0.805

Same assay, conditions: first compound 8 µM

Row | Cell Line | relative viability
105 | NCI-H522 | 1
106 | NCI-H1623 | 0.439
107 | NCI-H727 | 0.33
108 | NCI-H1650 | 0.199
109 | NCI-H1993 | 0.936
110 | SW 1573 | 0.248
111 | NCI-H838 | 0.24
112 | LCLC-103H | 0.859
113 | NCI-H520 | 0.269
114 | NCI-H2126 | 0.883
115 | EMC-BAC-2 | 1.14
116 | NCI-H2085 | 0.416
117 | NCI-H1666 | 1
118 | NCI-H596 | 0.97
119 | LK-2 | 0.184
120 | NCI-H2087 | 0.128
121 | NCI-H2342 | 0.7
122 | SK-MES-1 | 0.749
123 | H3255 | 0.882
124 | COR-L23 | 0.679
125 | COR-L 105 | 0.742
126 | ChaGo-K-1 | 0.67
127 | NCI-H2170 | 0.72
128 | SW 900 | 0.162
129 | NCI-H1563 | 0.536
130 | ABC-1 | 0.818

These cell lines were tested with Cc1ccccc1C(C(=O)NC1CCCCC1)N(C(=O)Cn1ccnc1C)c1cccc(F)c1 [IDH-C35] + C[C@]1(O)C[C@@H](c2nc(-c3ccc4ccc(-c5ccccc5)nc4c3)c3c(N)nccn32)C1 [Linsitinib] (partner 1 µM) in the same assay as above. Settings: first compound 0.08 µM.
Method in brief: as §1

Row | Cell Line | relative viability
131 | NCI-H727 | 0.202
132 | EBC-1 | 1.04
133 | NCI-H1703 | 0.821
134 | NCI-H1993 | 0.758
135 | SW 1573 | 0.78
136 | NCI-H838 | 1.08
137 | LCLC-103H | 1.21
138 | NCI-H520 | 0.915
139 | NCI-H2126 | 0.765
140 | EMC-BAC-2 | 0.797
141 | NCI-H2085 | 0.807
142 | Calu-6 | 0.993
143 | HCC-366 | 0.619
144 | NCI-H1666 | 0.775
145 | NCI-H596 | 1.14
146 | LK-2 | 0.679
147 | NCI-H2087 | 1.03
148 | SK-MES-1 | 1.15
149 | H3255 | 0.981
150 | COR-L23 | 0.828
151 | COR-L 105 | 1.01
152 | IA-LM | 0.876
153 | A549 | 0.624
154 | HCC-78 | 0.54
155 | NCI-H1299 | 1.11
156 | NCI-H1563 | 1.15
157 | ABC-1 | 0.898

Same assay, conditions: first compound 0.253 µM

Row | Cell Line | relative viability
158 | NCI-H727 | 0.248
159 | EBC-1 | 0.949
160 | NCI-H1703 | 0.787
161 | NCI-H1993 | 0.776
162 | SW 1573 | 0.752
163 | NCI-H838 | 0.959
164 | LCLC-103H | 1.01
165 | NCI-H520 | 0.969
166 | NCI-H2126 | 0.667
167 | EMC-BAC-2 | 0.799
168 | NCI-H2085 | 0.815
169 | Calu-6 | 0.928
170 | HCC-366 | 0.647
171 | NCI-H1666 | 0.79
172 | NCI-H596 | 1.14
173 | LK-2 | 0.465
174 | NCI-H2087 | 0.826
175 | SK-MES-1 | 0.986
176 | H3255 | 0.915
177 | COR-L23 | 0.896
178 | COR-L 105 | 1.24
179 | IA-LM | 0.776
180 | A549 | 0.55
181 | HCC-78 | 0.495
182 | NCI-H1299 | 0.969
183 | NCI-H1563 | 1.3
184 | ABC-1 | 0.856

Same assay, conditions: first compound 0.8 µM

Row | Cell Line | relative viability
185 | NCI-H727 | 0.328
186 | EBC-1 | 1.02
187 | NCI-H1703 | 0.632
188 | NCI-H1993 | 0.817
189 | SW 1573 | 0.832
190 | NCI-H838 | 0.949
191 | LCLC-103H | 0.98
192 | NCI-H520 | 1
193 | NCI-H2126 | 0.712
194 | EMC-BAC-2 | 0.798
195 | NCI-H2085 | 0.922
196 | Calu-6 | 0.961
197 | HCC-366 | 0.553
198 | NCI-H1666 | 0.888
199 | NCI-H596 | 0.986
200 | LK-2 | 0.43
201 | NCI-H2087 | 0.744
202 | SK-MES-1 | 1.05
203 | H3255 | 1.01
204 | COR-L23 | 0.913
205 | COR-L 105 | 0.854
206 | IA-LM | 0.628
207 | A549 | 0.504
208 | HCC-78 | 0.497
209 | NCI-H1299 | 0.976
210 | NCI-H1563 | 1.15
211 | ABC-1 | 0.913

Same assay, conditions: first compound 2.53 µM

Row | Cell Line | relative viability
212 | NCI-H727 | 0.249
213 | EBC-1 | 0.867
214 | NCI-H1703 | 0.778
215 | NCI-H1993 | 0.745
216 | SW 1573 | 0.821
217 | NCI-H838 | 1.04
218 | LCLC-103H | 1.13
219 | NCI-H520 | 0.888
220 | NCI-H2126 | 0.726
221 | EMC-BAC-2 | 0.777
222 | NCI-H2085 | 0.992
223 | Calu-6 | 0.932
224 | HCC-366 | 0.601
225 | NCI-H1666 | 0.904
226 | NCI-H596 | 1.14
227 | LK-2 | 0.746
228 | NCI-H2087 | 0.87
229 | SK-MES-1 | 0.957
230 | H3255 | 0.877
231 | COR-L23 | 0.889
232 | COR-L 105 | 1.01
233 | IA-LM | 0.621
234 | A549 | 0.502
235 | HCC-78 | 0.382
236 | NCI-H1299 | 1
237 | NCI-H1563 | 1.2
238 | ABC-1 | 0.767

Same assay, conditions: first compound 8 µM

Row | Cell Line | relative viability
239 | NCI-H727 | 0.254
240 | EBC-1 | 0.852
241 | NCI-H1703 | 0.536
242 | NCI-H1993 | 0.798
243 | SW 1573 | 0.678
244 | NCI-H838 | 0.943
245 | LCLC-103H | 1.07
246 | NCI-H520 | 0.907
247 | NCI-H2126 | 0.703
248 | EMC-BAC-2 | 0.812
249 | NCI-H2085 | 0.846
250 | Calu-6 | 0.88
251 | HCC-366 | 0.606
252 | NCI-H1666 | 0.941
253 | NCI-H596 | 1.13
254 | LK-2 | 0.619
255 | NCI-H2087 | 0.881
256 | SK-MES-1 | 0.99
257 | H3255 | 0.881
258 | COR-L23 | 0.886
259 | COR-L 105 | 0.836
260 | IA-LM | 0.589
261 | A549 | 0.585
262 | HCC-78 | 0.453
263 | NCI-H1299 | 0.957
264 | NCI-H1563 | 1.16
265 | ABC-1 | 0.746
